Reference: paper PMC10435442, “Developing multitarget coumarin based anti-breast cancer agents: synthesis and molecular modeling study” (Scientific Reports, 2023)
Converted amounts (≈) assume the structure as drawn. “And” between values parts separate entries of the source, which are not always exact repeats. Equal values may be shown once. Read-outs that look alike come from different tables or passages of the source. Marks after values point to notes of the source that are not given here.

How the values were obtained:
ARO = system: ARO; parameters: method as in PMID 21341743, PMID 28512028, PMID 15358790, PMID 24607878, PMID 30360952; settings: reported coumarin derivatives, Fig. 1b; read-out: ARO inhibitior IC50; cited from earlier work
EGFR = EGFR (Homo sapiens, UniProt P00533); experiment: In vitro EGFR enzyme inhibition assay (ELISA)
Caspase-9 = Caspase-9 level (ELISA) in treated cells; type: cell-based, human; settings: MCF-7 cells
MCF-7 [1] = experiment: Annexin V-FITC/PI dual staining apoptosis assay, MCF-7; type: cell-based, human
MDA-MB-231 = experiment: MTT cytotoxicity assay, MDA-MB-231; settings: Homo sapiens
MCF-10A = experiment: MTT cytotoxicity assay, nonmalignant MCF-10A; settings: read-out: MCF-10A IC50; MTT, nonmalignant MCF-10A;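 note: MTT assay with absorbance read at 570 nm after 48 h exposure of cells to serial compound concentrations at 37 °C, testing selectivity against nonmalignant versus cancer cells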
Bcl-2 = Bcl-2 level (ELISA) in treated cells; type: cell-based, human; settings: MCF-7 cells
Bax = Bax level (ELISA) in treated cells; type: cell-based, human; settings: MCF-7 cells
MCF-7 [2] = experiment: MTT cytotoxicity assay, MCF-7; settings: for IC50: Homo sapiens
MCF-7 [3] = experiment: DNA flow cytometric cell cycle analysis, MCF-7; type: cell-based, human
in vitro = settings: human, MCF-10A cells (nonmalignant breast)
[4] = MCF-7, compared to untreated control

Chain of EGFR (P00533 25-1210): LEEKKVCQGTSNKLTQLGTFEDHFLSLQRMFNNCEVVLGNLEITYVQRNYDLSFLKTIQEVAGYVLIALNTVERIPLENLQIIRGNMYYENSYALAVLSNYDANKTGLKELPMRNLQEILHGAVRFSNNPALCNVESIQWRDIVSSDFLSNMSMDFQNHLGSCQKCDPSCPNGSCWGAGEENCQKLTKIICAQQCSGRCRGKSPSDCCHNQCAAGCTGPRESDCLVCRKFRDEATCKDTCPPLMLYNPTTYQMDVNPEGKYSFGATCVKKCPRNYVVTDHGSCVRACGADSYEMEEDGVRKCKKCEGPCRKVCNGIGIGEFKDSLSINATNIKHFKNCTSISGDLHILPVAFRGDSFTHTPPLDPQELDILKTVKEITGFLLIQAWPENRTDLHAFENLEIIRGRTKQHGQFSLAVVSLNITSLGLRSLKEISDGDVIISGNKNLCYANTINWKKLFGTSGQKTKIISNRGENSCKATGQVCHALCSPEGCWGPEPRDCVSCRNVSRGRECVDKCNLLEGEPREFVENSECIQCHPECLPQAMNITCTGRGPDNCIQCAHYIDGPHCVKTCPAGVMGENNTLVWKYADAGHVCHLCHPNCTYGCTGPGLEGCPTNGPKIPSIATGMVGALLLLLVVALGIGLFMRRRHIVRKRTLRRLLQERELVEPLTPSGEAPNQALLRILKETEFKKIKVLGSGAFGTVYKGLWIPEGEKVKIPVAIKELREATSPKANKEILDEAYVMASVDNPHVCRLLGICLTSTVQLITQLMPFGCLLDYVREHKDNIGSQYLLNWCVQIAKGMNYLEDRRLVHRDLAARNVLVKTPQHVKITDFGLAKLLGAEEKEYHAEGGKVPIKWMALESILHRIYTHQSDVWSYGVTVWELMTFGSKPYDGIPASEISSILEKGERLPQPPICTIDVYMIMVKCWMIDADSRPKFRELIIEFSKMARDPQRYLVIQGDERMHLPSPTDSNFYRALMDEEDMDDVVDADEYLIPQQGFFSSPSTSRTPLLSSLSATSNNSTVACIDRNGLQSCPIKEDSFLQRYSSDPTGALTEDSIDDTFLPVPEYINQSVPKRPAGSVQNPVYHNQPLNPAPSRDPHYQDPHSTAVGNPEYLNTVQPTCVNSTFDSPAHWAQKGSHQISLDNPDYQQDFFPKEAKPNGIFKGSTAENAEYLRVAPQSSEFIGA

COc1ccc2c(Cc3ccccc3)c(-c3ccc(Cl)cc3)c(=O)oc2c1 [IV]
IC50 (ARO): 80 nM

O=C(COc1ccc2c(COC(=O)c3ccccc3)cc(=O)oc2c1)c1ccc(Cl)cc1 [Compound 8, {7-[2-(4-Chlorophenyl)-2-oxoethoxy]-2-oxo-2H-chromen-4-yl}methyl benzoate]
IC50 (EGFR; EGFR IC50, lab report 01-11-2021, 10 compounds): 1100 nM
IC50 (EGFR; EGFR inhibition IC50): 1100 ± 66 nM
EGFR %inh (EGFR; conc 10 (unit not given), lab report 01-11-2021): 83%
Percentage above Reference IC50 (potency relative to erlotinib) (EGFR; reference Erlotinib): 7.636%
Caspase-9 Conc. (Caspase-9): 30.39±2.56^abc ng/ml
Apoptosis Late (MCF-7 [1]; MCF7): 19.66
Apoptosis Total (MCF-7 [1]; MCF7): 31.19
% Apoptosis Early (MCF-7 [1]; MCF-7): 4.94^abcA %
% Apoptosis Late (MCF-7 [1]; MCF-7): 19.66^acA %
% Apoptosis Total (MCF-7 [1]; MCF-7): 31.19% and 31.19^abc %
% Necrosis (MCF-7 [1]; MCF-7): 6.59%
IC50 (MDA-MB-231; MDA-MB-231, read-out: MDA-MBA-231 IC50): 27500 ± 670 nM
IC50 (MDA-MB-231; MDA-MB-231, read-out: cytotoxicity_IC50 MDA): 12.3 ± 0.67 µg/mL
IC50 (MCF-10A): 79900 ± 1740 nM
Bcl-2 Conc (Bcl-2): 3.291±0.36^a ng/ml
Bax Conc (Bax): 0.164±0.0056^acd ng/ml
IC50 (MCF-7 [2]; MCF7, read-out: MCF-7 IC50): 5800 ± 160 nM
IC50 (MCF-7 [2]; MCF7, read-out: cytotoxicity_IC50 mcf7): 2.62 ± 0.16 µg/mL
% viability (MCF-7 [2]; MCF7, 0.4ug): 61.556%
% viability (MCF-7 [2]; MCF7, 1.6ug): 54.284%
% viability (MCF-7 [2]; MCF7, 6.3ug): 43.461%
% viability (MCF-7 [2]; MCF7, 25ug): 36.189%
% viability (MCF-7 [2]; MCF7, 100ug): 27.3957%
Comment (cell cycle phase of growth arrest) (MCF-7 [3]; MCF7): cell growth arrest@ G1/S
DNA content %G0-G1 (MCF-7 [3]; MCF7): 55.83%
DNA content %Pre-G1 (MCF-7 [3]; MCF7): 31.19%
DNA content %S (MCF-7 [3]; MCF7): 39.85%
%G0-G1 (MCF-7 [3]; MCF-7, IC50 concentration): 55.83^c ^ACD %
%Pre-G1 (MCF-7 [3]; MCF-7, IC50 concentration): 31.19^ae ^AB %
%S (MCF-7 [3]; MCF-7, IC50 concentration): 39.85 ^CE %
arrest in S phase (MCF-7 [3]; [4]): 1.33 folds
increase of apoptotic cells in pre-G1 phase (MCF-7 [3]; [4]): 18.67 folds
IC50 at 48 h (in vitro): 35.8 ± 1.74 µg/mL (≈ 79.8 µM)
viability at 48 h, 0.4 ug (in vitro): 84.7%
viability at 48 h, 1.6 ug (in vitro): 69.5%
viability at 48 h, 6.25 ug (in vitro): 63.2%
viability at 48 h, 25 ug (in vitro): 51.8%
viability at 48 h, 100 ug (in vitro): 43.6%

O=c1cc(Cn2ccnc2)c2ccc(Oc3ccc(F)c(F)c3)cc2o1 [II]
IC50 (ARO): 47 nM
